Assay results: the Kinase Knowledgebase extract (Sharma et al. 2016)

Columns and labels:
Assay in all cases: Enzyme Assay
MAPK14 (human) = MAPK14 (human) (UniProt Q16539)
PIK3CA (human) = PIK3CA (human) (UniProt P42336)
PIK3CG (human) = PIK3CG (human) (UniProt P48736)
CDK2 (human) = CDK2 (human) (UniProt P24941)

Sequence of MAPK14 (human) (Q16539 whole entry, looked up): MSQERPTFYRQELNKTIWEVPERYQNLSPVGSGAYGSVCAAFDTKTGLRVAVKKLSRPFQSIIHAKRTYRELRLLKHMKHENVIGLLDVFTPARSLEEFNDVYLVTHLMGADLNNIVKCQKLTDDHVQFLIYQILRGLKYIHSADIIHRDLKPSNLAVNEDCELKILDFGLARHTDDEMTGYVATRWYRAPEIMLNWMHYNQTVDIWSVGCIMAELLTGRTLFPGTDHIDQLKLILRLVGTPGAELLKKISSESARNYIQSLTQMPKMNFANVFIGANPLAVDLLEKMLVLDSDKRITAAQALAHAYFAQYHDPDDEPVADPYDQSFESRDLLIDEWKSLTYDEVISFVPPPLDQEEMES
Sequence of PIK3CG (human) (P48736 whole entry, looked up): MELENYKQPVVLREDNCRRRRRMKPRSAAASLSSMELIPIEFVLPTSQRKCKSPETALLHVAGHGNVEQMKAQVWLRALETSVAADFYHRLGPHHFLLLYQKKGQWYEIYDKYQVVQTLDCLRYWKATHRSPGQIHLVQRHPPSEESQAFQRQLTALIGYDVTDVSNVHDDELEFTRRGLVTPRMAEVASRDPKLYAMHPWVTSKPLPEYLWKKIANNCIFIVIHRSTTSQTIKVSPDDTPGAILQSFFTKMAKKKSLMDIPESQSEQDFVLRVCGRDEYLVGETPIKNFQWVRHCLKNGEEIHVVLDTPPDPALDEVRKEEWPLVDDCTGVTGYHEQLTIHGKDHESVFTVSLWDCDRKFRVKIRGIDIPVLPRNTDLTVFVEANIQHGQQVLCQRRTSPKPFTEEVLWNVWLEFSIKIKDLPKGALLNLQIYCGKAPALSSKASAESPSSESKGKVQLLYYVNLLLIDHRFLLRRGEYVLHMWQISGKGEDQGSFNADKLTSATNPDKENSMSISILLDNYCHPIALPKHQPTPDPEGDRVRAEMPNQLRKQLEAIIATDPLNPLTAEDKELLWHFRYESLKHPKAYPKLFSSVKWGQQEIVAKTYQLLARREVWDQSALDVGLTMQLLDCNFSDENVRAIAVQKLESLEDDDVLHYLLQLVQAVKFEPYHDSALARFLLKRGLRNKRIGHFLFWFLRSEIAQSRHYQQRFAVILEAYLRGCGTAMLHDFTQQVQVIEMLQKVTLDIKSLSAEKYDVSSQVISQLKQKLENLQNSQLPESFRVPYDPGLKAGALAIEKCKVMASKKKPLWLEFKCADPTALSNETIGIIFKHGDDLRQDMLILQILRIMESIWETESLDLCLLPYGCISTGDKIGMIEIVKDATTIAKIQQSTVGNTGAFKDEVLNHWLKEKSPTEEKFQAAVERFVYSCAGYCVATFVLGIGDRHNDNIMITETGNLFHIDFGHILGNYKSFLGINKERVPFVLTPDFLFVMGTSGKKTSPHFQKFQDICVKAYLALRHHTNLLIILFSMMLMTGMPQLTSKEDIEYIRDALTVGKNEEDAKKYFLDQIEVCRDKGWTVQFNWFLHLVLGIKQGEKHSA
Sequence of PIK3CA (human) (P42336 whole entry, looked up): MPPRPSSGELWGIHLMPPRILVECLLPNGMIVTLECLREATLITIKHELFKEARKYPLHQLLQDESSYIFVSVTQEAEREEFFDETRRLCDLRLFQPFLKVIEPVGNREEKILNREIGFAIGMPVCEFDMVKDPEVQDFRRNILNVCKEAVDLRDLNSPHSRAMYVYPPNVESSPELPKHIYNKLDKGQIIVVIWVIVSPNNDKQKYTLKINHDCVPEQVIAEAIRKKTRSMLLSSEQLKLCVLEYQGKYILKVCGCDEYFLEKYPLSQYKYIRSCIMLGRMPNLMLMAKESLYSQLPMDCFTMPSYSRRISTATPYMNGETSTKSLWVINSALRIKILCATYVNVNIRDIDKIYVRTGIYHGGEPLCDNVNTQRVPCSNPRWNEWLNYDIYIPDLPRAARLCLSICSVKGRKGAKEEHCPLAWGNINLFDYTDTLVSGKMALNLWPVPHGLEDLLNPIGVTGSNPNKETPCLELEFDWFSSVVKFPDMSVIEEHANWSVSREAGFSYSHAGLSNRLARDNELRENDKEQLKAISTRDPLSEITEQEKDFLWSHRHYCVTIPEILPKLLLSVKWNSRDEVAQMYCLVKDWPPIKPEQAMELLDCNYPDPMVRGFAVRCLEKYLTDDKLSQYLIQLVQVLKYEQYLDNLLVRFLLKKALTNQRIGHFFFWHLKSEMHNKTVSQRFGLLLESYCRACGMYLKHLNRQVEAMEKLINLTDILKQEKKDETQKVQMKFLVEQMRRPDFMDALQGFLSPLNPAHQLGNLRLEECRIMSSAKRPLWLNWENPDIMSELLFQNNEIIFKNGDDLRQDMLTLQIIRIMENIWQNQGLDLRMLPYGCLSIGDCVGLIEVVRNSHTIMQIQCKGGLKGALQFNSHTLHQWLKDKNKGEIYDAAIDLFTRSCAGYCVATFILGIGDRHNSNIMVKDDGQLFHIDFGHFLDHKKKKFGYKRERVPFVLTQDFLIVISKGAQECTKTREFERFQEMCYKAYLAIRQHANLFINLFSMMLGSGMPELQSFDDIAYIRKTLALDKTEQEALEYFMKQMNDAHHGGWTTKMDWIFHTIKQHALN

Row | SMILES | IC50 (MAPK14 (human)) [µM] | IC50 (PIK3CA (human)) [µM] | IC50 (PIK3CG (human)) [µM] | IC50 (CDK2 (human)) [µM]
1 | COc1cc2ncc3c4ccc(C#N)cc4[nH]c3c2cc1OC | > 88.8 | 1.7 | 3.4 | 0.599
2 | COCCOc1cc2ncc3c4ccc(C#N)cc4[nH]c3c2cc1OC | > 45.6 | – | – | 1.21
3 | COc1cc2c(cc1OCCCN1CCN(C)CC1)ncc1c3ccc(C#N)cc3[nH]c21 | > 47 | – | – | 0.479
4 | COc1cc2c(cc1OCCN(C)C)ncc1c3ccc(C#N)cc3[nH]c21 | > 49.4 | – | – | 1.01
5 | COc1cc2c(cc1OCC1CCCCN1C)ncc1c3ccc(C#N)cc3[nH]c21 (stereo not drawn) | > 50 | – | – | 1.1
6 | COc1cc2c(cc1OC1CCN(C)CC1)ncc1c3ccc(C#N)cc3[nH]c21 | 6.82 | – | – | 5.7
7 | COc1cc2c(cc1OCCCN(C)C)ncc1c3ccc(C#N)cc3[nH]c21 | > 36.2 | > 7.25 | > 7.25 | 4.35
